Results reported in ChEMBL document CHEMBL3886715, “Tetrahydroisoquinoline derivatives, pharmaceutical compositions and uses thereof” (2016).

Biological target: Acetyl-CoA carboxylase 2 (Homo sapiens, UniProt O00763)
Experiment: Spectrophotometric 384 Well Assay: Assay reactions are then carried out in 384-well plates, with hACC2 in an appropriate dilution and at final assay concentrations (f.c.) of 100 mM Tris (pH 7.5), 10 mM trisodium citrate, 25 mM KHCO3, 10 mM MgCl2, 0.5 mg/ml BSA, 3.75 mM reduced L-glutathione, 15 U/ml lactate dehydrogenase, 0.5 mM phosphoenolpyruvate, 15 U/ml pyruvate kinase, compounds at different concentrations at final DMSO concentrations of 1%.The enzymatic reaction is then started by addition of a mixture of NADH, acetyl Coenzyme A (both […].) and ATP (500 uM f.c.). The decrease of the optical density (slope S) is then determined at 25° C. at a wavelength of 340 nm over 15 minutes in a spectrophotometric reader.Each assay microtiter plate contains wells with vehicle instead of compound as controls for the non-inhibited enzyme (100% CTL; HIGH) and wells without acetyl-CoA as controls for non-specific NADH degradation (0% CTL; LOW).

Sequence of Acetyl-CoA carboxylase 2 (O00763 whole entry): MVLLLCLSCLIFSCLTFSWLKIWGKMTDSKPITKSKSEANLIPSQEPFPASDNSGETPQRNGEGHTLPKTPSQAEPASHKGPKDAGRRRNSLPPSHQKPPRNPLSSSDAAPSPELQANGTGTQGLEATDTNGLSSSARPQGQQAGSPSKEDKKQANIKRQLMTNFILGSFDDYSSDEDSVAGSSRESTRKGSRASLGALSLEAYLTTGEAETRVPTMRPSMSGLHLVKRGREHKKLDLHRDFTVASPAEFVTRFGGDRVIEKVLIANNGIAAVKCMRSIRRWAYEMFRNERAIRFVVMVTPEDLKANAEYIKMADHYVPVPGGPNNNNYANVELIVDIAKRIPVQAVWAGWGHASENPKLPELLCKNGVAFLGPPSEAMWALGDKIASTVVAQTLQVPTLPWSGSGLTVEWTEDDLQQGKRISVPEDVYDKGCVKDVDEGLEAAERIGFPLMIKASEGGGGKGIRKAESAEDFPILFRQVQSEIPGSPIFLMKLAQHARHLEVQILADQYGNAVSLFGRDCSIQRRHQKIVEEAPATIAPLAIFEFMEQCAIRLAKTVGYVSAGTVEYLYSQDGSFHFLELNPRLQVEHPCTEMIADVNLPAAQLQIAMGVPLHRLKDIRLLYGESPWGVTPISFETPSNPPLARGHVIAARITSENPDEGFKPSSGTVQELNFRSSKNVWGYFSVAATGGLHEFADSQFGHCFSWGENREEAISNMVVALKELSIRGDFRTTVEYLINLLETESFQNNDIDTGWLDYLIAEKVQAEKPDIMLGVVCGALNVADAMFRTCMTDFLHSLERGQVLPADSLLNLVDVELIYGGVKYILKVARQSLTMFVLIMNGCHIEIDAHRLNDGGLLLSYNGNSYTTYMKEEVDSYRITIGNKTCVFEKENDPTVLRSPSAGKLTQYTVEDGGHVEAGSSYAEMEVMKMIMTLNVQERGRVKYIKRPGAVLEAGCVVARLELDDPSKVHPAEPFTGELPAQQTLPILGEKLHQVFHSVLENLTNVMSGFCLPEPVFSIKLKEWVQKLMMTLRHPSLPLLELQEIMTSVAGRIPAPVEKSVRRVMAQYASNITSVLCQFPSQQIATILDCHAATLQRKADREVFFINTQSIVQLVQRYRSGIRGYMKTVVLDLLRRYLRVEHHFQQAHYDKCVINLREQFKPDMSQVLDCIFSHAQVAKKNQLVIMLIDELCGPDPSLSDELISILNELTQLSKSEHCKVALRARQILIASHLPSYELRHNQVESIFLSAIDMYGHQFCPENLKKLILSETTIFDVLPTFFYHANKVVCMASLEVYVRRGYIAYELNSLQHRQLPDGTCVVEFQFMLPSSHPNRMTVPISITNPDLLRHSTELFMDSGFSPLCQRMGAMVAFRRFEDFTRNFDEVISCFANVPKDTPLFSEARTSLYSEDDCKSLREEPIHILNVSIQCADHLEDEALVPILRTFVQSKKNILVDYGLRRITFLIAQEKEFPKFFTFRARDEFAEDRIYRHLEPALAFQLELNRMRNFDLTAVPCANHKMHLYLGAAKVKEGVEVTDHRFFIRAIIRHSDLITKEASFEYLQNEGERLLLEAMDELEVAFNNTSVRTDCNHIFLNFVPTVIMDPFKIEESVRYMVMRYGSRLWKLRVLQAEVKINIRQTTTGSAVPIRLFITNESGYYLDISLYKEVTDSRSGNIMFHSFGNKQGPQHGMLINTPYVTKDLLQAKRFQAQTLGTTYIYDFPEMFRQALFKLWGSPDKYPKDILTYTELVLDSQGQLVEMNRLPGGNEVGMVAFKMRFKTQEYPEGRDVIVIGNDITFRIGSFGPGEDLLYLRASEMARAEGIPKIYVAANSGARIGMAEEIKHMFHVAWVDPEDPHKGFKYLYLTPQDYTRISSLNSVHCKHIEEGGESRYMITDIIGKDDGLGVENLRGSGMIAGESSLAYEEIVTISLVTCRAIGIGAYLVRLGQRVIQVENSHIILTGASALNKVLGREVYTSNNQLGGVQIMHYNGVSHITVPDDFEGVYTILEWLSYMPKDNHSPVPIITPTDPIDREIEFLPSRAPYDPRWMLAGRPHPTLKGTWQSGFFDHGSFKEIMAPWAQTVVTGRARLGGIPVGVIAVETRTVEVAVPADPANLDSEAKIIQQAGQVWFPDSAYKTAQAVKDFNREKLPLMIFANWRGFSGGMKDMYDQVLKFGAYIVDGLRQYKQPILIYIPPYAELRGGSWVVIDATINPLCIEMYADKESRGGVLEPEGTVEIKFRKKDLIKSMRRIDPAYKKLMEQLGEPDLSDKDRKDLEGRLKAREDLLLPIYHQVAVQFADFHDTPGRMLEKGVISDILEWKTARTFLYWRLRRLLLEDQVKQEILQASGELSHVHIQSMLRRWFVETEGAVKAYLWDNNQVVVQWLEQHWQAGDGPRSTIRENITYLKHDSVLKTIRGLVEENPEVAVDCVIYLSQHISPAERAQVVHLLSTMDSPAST

IC50 [nM]	SMILES
806	CC(=O)N[C@@H](C)c1ccc(CN2CCc3cc(OCC4CC4)ccc3C2C(=O)O)cc1 (some centres not stated)
22	C[C@H](NC(=O)N(C)C)c1ccc(CN2Cc3ccc(OCC4CC4)cc3C(F)C2)cc1 (some centres not stated)
